# Where two headings read alike, the source gives them in different places.
# Tests used:
# [1] = Compound 122 saliva concentrations in healthy human subjects after oral administration (HPLC-MS/MS); assay type: in vivo; conditions: for concentration at 2 h / concentration at 4 h / concentration at 8 h / concentration at 24 h / concentration at 0 h: human, saliva, po
# Experimental: (§1) Stock solutions of Compound 122-HCl salt and internal standard 2-difluoromethoxy-5-trifluoromethoxy-benzyl)-(2-phenyl-piperidin-3-yl)-amine] HCl salt (hereinafter referred to as IS, for internal standard) were prepared at concentrations of 100 μg/ml in 1:1 Methanol/Water and stored at −20° C. […] Serial dilutions of the stock solutions were prepared in 1:1 Methanol/Water as needed. Standard curve samples were freshly prepared using serial dilutions of stock so that equivalent additions produced 0.1, 0.2, 0.5, 2, 10, and 50 ng/ml solutions in Control Human Saliva (CHS). Quality control samples were prepared from a different stock solution similarly at 0.15, 5, and 40 ng/ml in CHS.
# Aliquots (50 μl) of Human saliva, 200 μl of 0.1% Ammonium Hydroxide and 50 μl of 2.0 ng/ml IS were added, in sequence, to one well of a 96 well block. The plate was centrifuged briefly to consolidate the above contents and placed onto a TomTec Quadra 96. An automatic program was used that performs the following steps: conditions a Waters brand 10 mg Oasis HLB plate with 100 μl Methanol and then 200 μl 50/50 Methanol/Water (containing 2% v/v Ammonium Hydroxide), transfers the 300 μl of sample to the plate, washes the plate with 400 μl of 50/50 Methanol/Water (containing 2% v/v Ammonium Hydroxide) and then elutes the drug and IS into a clean 96 deep well block with 200 μl of 70/30 Methanol/Water (containing 2% v/v Acetic Acid). The eluent was isolated, evaporated to dryness under a stream of Nitrogen, and reconstituted in 100 μl 60/40 Methanol/10 mM Ammonium Acetate (both containing 0.05% Formic Acid) and vortexed for approximately 30 seconds. The plate was then centrifuged for ˜1 minute at about 3000 RPM. Injection volumes introduced into HPLC system were typically […].
# The mobile phase was a binary mixture (60/40) of Methanol and 10 mM Ammonium Acetate (both containing 0.05% Formic Acid). The analytical column was a Phenomenex LUNA Phenyl Hexyl, 5μ, 2.00×50 mm LC/MS column preceded by a 2.0 micron stainless steel precolumn filter. A Hewlett Packard 1100 series quaternary pump was used and a mobile phase flow rate of 0.30 ml/min was maintained. A CTC Analytics (LEAP) HTS PAL autosampler injected the 10 μl sample aliquots onto the column at approximately 3 minute intervals.
# The analysis was performed on a Perkin Elmer SCIEX API 3000 triple quadrupole mass spectrometer operated in the positive ion mode. The effluent from the HPLC column was directly introduced into the TurbolonSpray ion source, which was operated at 1500V with a temperature of 375° C. and 6 L/sec nitrogen gas. Nitrogen nebulizer gas was set to 10 and curtain gas was set to 9. Analyte and IS responses were measured using multiple reaction monitoring (MRM). Protonated molecular ions for drug (m/z 381.4), and I.S. (m/z 417.1) were dissociated by collision with nitrogen. Collision gas (CAD) was set to 5 and a collision energy of 32 eV was used. Product ions at m/z 160.0 were monitored for both drug and IS runs.
# Subjects were divided into three groups of six individuals: CYP2D6 extensive metabolizers (including one “intermediate” metabolizer), CYP2D6 extensive metabolizers receiving concurrent paroxetine as an inhibitor of CYP2D6 (also including one intermediate metabolizer), and CYP2D6 poor metabolizers. […] Saliva samples were collected on the first day of each study leg.
# Samples were subjected to a solid phase extraction procedure followed by chromatography and analysis on a Sciex API3000 tandem quadrupole mass spectrometer.
# Mean values were calculated in those cases in which half or greater of the individual values were >LLOQ. A value of zero was used in those cases wherein concentrations were <LLOQ. […] Cav is defined by AUC (0-24 hr)/24.
# [2] = Stability of Compound 122 stock solution; assay type: physicochemical; conditions: HCl salt, 100 μg/ml in 1:1 Methanol/Water, stored at −20° C.
# Experimental: as §1
# [3] = 10 mg, EM + paroxetine, Day 1, 10 mg q.d. oral, read-out: Mean saliva concentration, EM + paroxetine, Mean ± SD
# [4] = 10 mg, EM + paroxetine, Day 6, 10 mg b.i.d. oral, read-out: Mean saliva concentration, EM + paroxetine, Mean ± SD
# [5] = 10 mg, EM, Day 1, 10 mg q.d. oral, read-out: Mean saliva concentration, EM, Mean ± SD
# [6] = 10 mg, EM, Day 6, 10 mg b.i.d. oral, read-out: Mean saliva concentration, EM, Mean ± SD
# [7] = 10 mg, PM, Day 1, 10 mg q.d. oral, read-out: Mean saliva concentration, PM, Mean ± SD
# [8] = 10 mg, PM, Day 6, 10 mg b.i.d. oral, read-out: Mean saliva concentration, PM, Mean ± SD
# [9] = 30 mg, EM + paroxetine, Day 11, 30 mg q.d. oral, read-out: Mean saliva concentration, EM + paroxetine, Mean ± SD
# [10] = 30 mg, EM + paroxetine, Day 16, 30 mg b.i.d. oral, read-out: Mean saliva concentration, EM + paroxetine, Mean ± SD
# [11] = 30 mg, EM, Day 11, 30 mg q.d. oral, read-out: Mean saliva concentration, EM, Mean ± SD
# [12] = 30 mg, EM, Day 16, 30 mg b.i.d. oral, read-out: Mean saliva concentration, EM, Mean ± SD
# [13] = 30 mg, PM, Day 11, 30 mg q.d. oral, read-out: Mean saliva concentration, PM, Mean ± SD
# [14] = 30 mg, PM, Day 16, 30 mg b.i.d. oral, read-out: Mean saliva concentration, PM, Mean ± SD
# [15] = 100 mg, EM + paroxetine, Day 21, 100 mg q.d. oral, read-out: Mean saliva concentration, EM + paroxetine, Mean ± SD
# [16] = 100 mg, EM, Day 21, 100 mg q.d. oral, read-out: Mean saliva concentration, EM, Mean ± SD
# [17] = 100 mg, PM, Day 21, 100 mg q.d. oral, read-out: Mean saliva concentration, PM, Mean ± SD
structure (smiles),measurement,setting,value
"COc1ccc(OC(F)(F)F)cc1CNC1CCCNC1c1ccccc1 (centres unmarked) [Compound 122, (2-methoxy-5-trifluoromethoxy-benzyl)-(2-phenyl-piperidin-3-yl)-amine]",mean salivary Cav,"[1]; 30 mg b.i.d., Cav = AUC (0-24 hr)/24",4.04 ng/mL
same,serum Cav corresponding to salivary Cav,"[1]; 30 mg b.i.d., salivary Cav divided by fu",58 ng/mL
same,concentration at 2 h,[1]; [3],0.5 ± 0.462 ng/mL
same,concentration at 4 h,[1]; [3],0.632 ± 0.773 ng/mL
same,concentration at 8 h,[1]; [3],0.533 ± 0.722 ng/mL
same,concentration at 24 h,[1]; [3],0.192 ± 0.332 ng/mL
same,concentration at 0 h,[1]; [4],3.21 ± 5.09 ng/mL
same,concentration at 2 h,[1]; [4],1.92 ± 1.83 ng/mL
same,concentration at 4 h,[1]; [4],2.97 ± 2.16 ng/mL
same,concentration at 8 h,[1]; [4],5.68 ± 9.27 ng/mL
same,concentration at 24 h,[1]; [4],2.16 ± 1.27 ng/mL
same,concentration at 2 h,[1]; [5],0.545 ± 0.518 ng/mL
same,concentration at 4 h,[1]; [5],0.524 ± 0.293 ng/mL
same,concentration at 8 h,[1]; [5],0.313 ± 0.164 ng/mL
same,concentration at 0 h,[1]; [6],0.27 ± 0.454 ng/mL
same,concentration at 2 h,[1]; [6],0.541 ± 0.465 ng/mL
same,concentration at 4 h,[1]; [6],0.987 ± 0.915 ng/mL
same,concentration at 8 h,[1]; [6],0.805 ± 1.18 ng/mL
same,concentration at 24 h,[1]; [6],0.418 ± 0.426 ng/mL
same,concentration at 2 h,[1]; [7],0.517 ± 0.261 ng/mL
same,concentration at 4 h,[1]; [7],2.23 ± 1.06 ng/mL
same,concentration at 8 h,[1]; [7],2.31 ± 1.32 ng/mL
same,concentration at 24 h,[1]; [7],1.05 ± 0.558 ng/mL
same,concentration at 0 h,[1]; [8],2.93 ± 2.45 ng/mL
same,concentration at 2 h,[1]; [8],2.85 ± 2.18 ng/mL
same,concentration at 4 h,[1]; [8],4.69 ± 3.28 ng/mL
same,concentration at 8 h,[1]; [8],3.23 ± 2.8 ng/mL
same,concentration at 24 h,[1]; [8],5.51 ± 4.39 ng/mL
same,concentration at 0 h,[1]; [9],3.86 ± 1.57 ng/mL
same,concentration at 2 h,[1]; [9],5.98 ± 2.9 ng/mL
same,concentration at 4 h,[1]; [9],9.51 ± 3.07 ng/mL
same,concentration at 8 h,[1]; [9],6.3 ± 1.69 ng/mL
same,concentration at 24 h,[1]; [9],5.59 ± 2.28 ng/mL
same,concentration at 0 h,[1]; [10],6.16 ± 4.58 ng/mL
same,concentration at 2 h,[1]; [10],9.11 ± 5.4 ng/mL
same,concentration at 4 h,[1]; [10],10 ± 6 ng/mL
same,concentration at 8 h,[1]; [10],9.69 ± 4.74 ng/mL
same,concentration at 24 h,[1]; [10],9.67 ± 5.91 ng/mL
same,concentration at 0 h,[1]; [11],1.16 ± 1.81 ng/mL
same,concentration at 2 h,[1]; [11],3.07 ± 2.77 ng/mL
same,concentration at 4 h,[1]; [11],4.03 ± 4.1 ng/mL
same,concentration at 8 h,[1]; [11],3.18 ± 2.99 ng/mL
same,concentration at 24 h,[1]; [11],1.92 ± 3.13 ng/mL
same,concentration at 0 h,[1]; [12],2.44 ± 4.17 ng/mL
same,concentration at 2 h,[1]; [12],2.91 ± 2.49 ng/mL
same,concentration at 4 h,[1]; [12],4.57 ± 3.03 ng/mL
same,concentration at 8 h,[1]; [12],3.44 ± 3.67 ng/mL
same,concentration at 24 h,[1]; [12],5.08 ± 7.08 ng/mL
same,concentration at 0 h,[1]; [13],8.31 ± 6.8 ng/mL
same,concentration at 2 h,[1]; [13],6.96 ± 3.73 ng/mL
same,concentration at 4 h,[1]; [13],11.1 ± 8.5 ng/mL
same,concentration at 8 h,[1]; [13],14 ± 9.7 ng/mL
same,concentration at 24 h,[1]; [13],11.8 ± 9.3 ng/mL
same,concentration at 0 h,[1]; [14],15 ± 10.9 ng/mL
same,concentration at 2 h,[1]; [14],11.4 ± 6.5 ng/mL
same,concentration at 4 h,[1]; [14],12.9 ± 7.5 ng/mL
same,concentration at 8 h,[1]; [14],13.3 ± 9.9 ng/mL
same,concentration at 24 h,[1]; [14],21.5 ± 18.4 ng/mL
same,concentration at 24 h,"[1]; 100 mg q.d., EM + paroxetine, Day 21, 100 mg q.d. oral, read-out: Mean saliva concentration, EM + paroxetine, Mean ± SD",15.7 ± 8.8 ng/mL
same,concentration at 24 h,"[1]; 100 mg q.d., EM, Day 21, 100 mg q.d. oral, read-out: Mean saliva concentration, EM, Mean ± SD",12.5 ± 15.4 ng/mL
same,concentration at 24 h,"[1]; 100 mg q.d., PM, Day 21, 100 mg q.d. oral, read-out: Mean saliva concentration, PM, Mean ± SD",46.4 ± 27.1 ng/mL
same,concentration at 0 h,[1]; [15],12.2 ± 2.7 ng/mL
same,concentration at 2 h,[1]; [15],35.5 ± 24.7 ng/mL
same,concentration at 4 h,[1]; [15],44.1 ± 32.3 ng/mL
same,concentration at 8 h,[1]; [15],27.2 ± 10 ng/mL
same,concentration at 0 h,[1]; [16],6.94 ± 6.81 ng/mL
same,concentration at 2 h,[1]; [16],19.1 ± 16.6 ng/mL
same,concentration at 4 h,[1]; [16],21.2 ± 13.6 ng/mL
same,concentration at 8 h,[1]; [16],14.6 ± 8.6 ng/mL
same,concentration at 0 h,[1]; [17],32.9 ± 17.1 ng/mL
same,concentration at 2 h,[1]; [17],23.1 ± 12.1 ng/mL
same,concentration at 4 h,[1]; [17],46.2 ± 29.1 ng/mL
same,concentration at 8 h,[1]; [17],41.3 ± 26.2 ng/mL
same,stock solution stable over period,[2],≥ 93 days

# — US20030211636A1, “Point of care test for measurement of therapeutic drug levels” (Pfizer Inc., priority 2002, published 2003)
